This experiment deals with L1210 leukemia ip in BDF1 mice, survival T/C. The experiment is described as follows: NCI In Vivo Anticancer Drug Screen. Data for tumor model L1210 Leukemia (intraperitoneal) in B6D2F1 (BDF1) mice. The following applies: endpoint: mean survival time, higher = longer survival. Summed up:
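Transplanted-tumor mice were given test agent; controls received vehicle only. Survival readings from the two groups were divided (treated over control).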

Setting [1] is: dose: 100.0 mg/kg/injection, schedule: Q04DX003 (ip), vehicle: saline with Tween-80.
Where [2] appears, read: dose: 200.0 mg/kg/injection, schedule: Q04DX003 (ip), vehicle: saline with Tween-80.
Where [3] appears, read: dose: 400.0 mg/kg/injection, schedule: Q04DX003 (ip), vehicle: saline with Tween-80.
The mark [4] stands for this setting: dose: 100.0 mg/kg/injection, schedule: Q04DX002 (ip), vehicle: Klucel (hydroxypropylcellulose) (HPC).
[5] abbreviates: dose: 200.0 mg/kg/injection, schedule: Q04DX002 (ip), vehicle: Klucel (hydroxypropylcellulose) (HPC).
[6] abbreviates: dose: 400.0 mg/kg/injection, schedule: Q04DX002 (ip), vehicle: Klucel (hydroxypropylcellulose) (HPC).
Setting [7] is: dose: 100.0 mg/kg/injection, schedule: Q04DX003 (ip), vehicle: Klucel (hydroxypropylcellulose) (HPC).
The mark [8] stands for this setting: dose: 200.0 mg/kg/injection, schedule: Q04DX003 (ip), vehicle: Klucel (hydroxypropylcellulose) (HPC).
Setting [9] is: dose: 400.0 mg/kg/injection, schedule: Q04DX003 (ip), vehicle: Klucel (hydroxypropylcellulose) (HPC).
Where [10] appears, read: dose: 25.0 mg/kg/injection, schedule: Q04DX002 (ip), vehicle: Klucel (hydroxypropylcellulose) (HPC).
The mark [11] stands for this setting: dose: 100.0 mg/kg/injection, schedule: Q01DX001 (ip), vehicle: Klucel (hydroxypropylcellulose) (HPC).
Where [12] appears, read: dose: 200.0 mg/kg/injection, schedule: Q01DX001 (ip), vehicle: Klucel (hydroxypropylcellulose) (HPC).
Where [13] appears, read: dose: 400.0 mg/kg/injection, schedule: Q01DX001 (ip), vehicle: Klucel (hydroxypropylcellulose) (HPC).

SMILES strings stand for the structures. Values joined by “and” are separate entries in the source; they are usually repeats but may differ in a detail not shown here. Equal entries are not always repeated. Inconclusive results and toxic doses are left out.

Consider `CCCCCCCCCCCCCCCCOc1ccccc1C(C)=O`, for which the T/C reads like this: (dose: 100.0 mg/kg/injection, schedule: Q01DX009 (ip), vehicle: saline with Tween-80) 92 % of control; under setting [1], 89 % of control; (dose: 200.0 mg/kg/injection, schedule: Q01DX009 (ip), vehicle: saline with Tween-80) 96 % of control; under setting [2], 98 % of control; (dose: 400.0 mg/kg/injection, schedule: Q01DX009 (ip), vehicle: saline with Tween-80) 93 % of control; under setting [3], 93 % of control.
Take `CC(=O)Nc1ccc(Cl)c(F)c1Cl`: the T/C by setting is: under setting [4], 104 % of control; under setting [5], 93 % of control; under setting [6], 107 % of control.
As for `CC(=O)Nc1cc2c(cc1[N+](=O)[O-])-c1ccccc1/C2=N\O`, the T/C reads like this: (dose: 100.0 mg/kg/injection, schedule: Q01DX001 (ip), vehicle: carboxymethylcellulose (CMC)) 106 % of control; (dose: 200.0 mg/kg/injection, schedule: Q01DX001 (ip), vehicle: carboxymethylcellulose (CMC)) 94 % of control; (dose: 400.0 mg/kg/injection, schedule: Q01DX001 (ip), vehicle: carboxymethylcellulose (CMC)) 111 % of control.
`c1ccc(P2(c3ccccc3)=NP(c3ccccc3)(c3ccccc3)=NP(c3ccccc3)(c3ccccc3)=N2)cc1`: the T/C reads like this: (dose: 50.0 mg/kg/injection, schedule: Q01DX009 (ip), vehicle: saline) 89 % of control; (dose: 100.0 mg/kg/injection, schedule: Q01DX009 (ip), vehicle: saline) 86 % of control; (dose: 200.0 mg/kg/injection, schedule: Q01DX009 (ip), vehicle: saline) 88 % of control.
Regarding `CCCCN(C)/N=N/c1[nH]ncc1C(=O)OC`, the T/C (dose: 268.0 mg/kg/injection, schedule: Q01DX007 (ip), vehicle: other) is 150 % of control and the T/C (dose: 600.0 mg/kg/injection, schedule: Q01DX007 (ip), vehicle: other) is 88 % of control.
Regarding `c1ccc(CNCC(NCc2ccccc2)c2ccccc2)cc1` (centres undefined), the T/C is 91 % of control under setting [7]; 93 % of control under setting [1]; 93 % of control under setting [8]; 97 % of control under setting [2]; 98 % of control under setting [9]; 88 % of control under setting [3].
As for `Nc1ccccc1S(N)(=O)=O`, the T/C under setting [10] is 97 % of control; the T/C (dose: 50.0 mg/kg/injection, schedule: Q04DX002 (ip), vehicle: Klucel (hydroxypropylcellulose) (HPC)) is 97 % of control; the T/C under setting [4] was 101 % of control and 120 % of control; the T/C under setting [5] was 97 % of control and 100 % of control; the T/C under setting [6] was 113 % of control.
`Cc1c([N+](=O)[O-])cc(C(C)(C)C)c(O)c1[N+](=O)[O-]`: the T/C reads like this: (dose: 6.25 mg/kg/injection, schedule: Q01DX009 (ip), vehicle: saline with Tween-80) 95 % of control; (dose: 12.5 mg/kg/injection, schedule: Q01DX009 (ip), vehicle: saline with Tween-80) 91 % of control; (dose: 12.5 mg/kg/injection, schedule: Q04DX002 (ip), vehicle: Klucel (hydroxypropylcellulose) (HPC)) 110 % of control; under setting [10], 112 % of control; (dose: 25.0 mg/kg/injection, schedule: Q04DX002 (ip), vehicle: saline with Tween-80) 89 % of control.
Take `Nc1cccc(/C=C/c2ccc([N+](=O)[O-])cc2)c1`: the T/C by setting is: under setting [11], 91 % of control; under setting [12], 87 % of control; under setting [13], 94 % of control.
In the case of `O=C(OC1CCC(c2ccccc2)C1)c1cc([N+](=O)[O-])cc([N+](=O)[O-])c1` (centres undefined), the T/C runs as follows: (dose: 75.0 mg/kg/injection, schedule: Q04DX003 (ip), vehicle: other) 96 % of control; (dose: 150.0 mg/kg/injection, schedule: Q04DX003 (ip), vehicle: other) 92 % of control; (dose: 300.0 mg/kg/injection, schedule: Q04DX003 (ip), vehicle: other) 87 % of control.
Regarding `CCCCCCCc1ccc2cccc3c2c1C(=O)c1ccccc1-3`, the T/C under setting [7] was 92 % of control, the T/C under setting [8] is 92 % of control and the T/C under setting [9] was 94 % of control.
As for `c1ccc([Si](c2ccccc2)(c2ccccc2)c2ccc(-c3ccc([Si](c4ccccc4)(c4ccccc4)c4ccccc4)cc3)cc2)cc1`, the T/C was 90 % of control (dose: 200.0 mg/kg/injection, schedule: Q01DX001 (ip), vehicle: saline with Tween-80) and 88 % of control (dose: 400.0 mg/kg/injection, schedule: Q01DX001 (ip), vehicle: saline with Tween-80).
For the molecule `O=Cc1cc2ccccc2[nH]1`, the T/C is 105 % of control (dose: 100.0 mg/kg/injection, schedule: Q04DX002 (ip), vehicle: saline with Tween-80); 102 % of control (dose: 200.0 mg/kg/injection, schedule: Q04DX002 (ip), vehicle: saline with Tween-80); 102 % of control (dose: 400.0 mg/kg/injection, schedule: Q04DX002 (ip), vehicle: saline with Tween-80).
`NCc1ccc(NC(=O)c2ccc(C(=O)Nc3ccc(CN)cc3)c(N)c2)cc1`: the T/C runs as follows: (dose: 21.0 mg/kg/injection, schedule: Q01DX Z (ip), vehicle: water) 100 % of control; (dose: 42.0 mg/kg/injection, schedule: Q01DX Z (ip), vehicle: water) 98 % of control.
As for `O=C(NC1CCCCC1)N(C1CCCCC1)C1CCCCC1`, the T/C runs as follows: (dose: 100.0 mg/kg/injection, schedule: Q01DX009 (ip), vehicle: Klucel (hydroxypropylcellulose) (HPC)) 90 % of control; (dose: 200.0 mg/kg/injection, schedule: Q01DX009 (ip), vehicle: Klucel (hydroxypropylcellulose) (HPC)) 103 % of control; (dose: 400.0 mg/kg/injection, schedule: Q01DX009 (ip), vehicle: Klucel (hydroxypropylcellulose) (HPC)) 92 % of control.
Take `CCOC(=O)CCN(Cc1ccccc1)C(COC)C(=O)OCC` (centres undefined): the T/C reads like this: (dose: 100.0 mg/kg/injection, schedule: Q01DX001 (ip), vehicle: saline) 97 % of control; (dose: 200.0 mg/kg/injection, schedule: Q01DX001 (ip), vehicle: saline) 90 % of control; (dose: 400.0 mg/kg/injection, schedule: Q01DX001 (ip), vehicle: saline) 101 % of control.
`CSc1ncnc2c1ncn2C1OC(CCc2ccccc2)C(O)C1O` (centres undefined): the T/C is 100 % of control under setting [11], 96 % of control under setting [12] and 98 % of control under setting [13].
Take `CC(=O)C(C)[P+](c1ccccc1)(c1ccccc1)c1ccccc1` (centres undefined): the T/C is 104 % of control (dose: 6.25 mg/kg/injection, schedule: Q01DX009 (ip), vehicle: water); 95 % of control (dose: 12.5 mg/kg/injection, schedule: Q01DX009 (ip), vehicle: water); 102 % of control (dose: 12.5 mg/kg/injection, schedule: Q04DX003 (ip), vehicle: water); 102 % of control (dose: 25.0 mg/kg/injection, schedule: Q01DX009 (ip), vehicle: water); 100 % of control (dose: 25.0 mg/kg/injection, schedule: Q04DX003 (ip), vehicle: water); 96 % of control (dose: 50.0 mg/kg/injection, schedule: Q01DX009 (ip), vehicle: water).

The values above are taken from PubChem BioAssay AID248 (DTP/NCI, 2004).
